#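 Exposure lasted 48 hours, with cells grown in 96-well plates and compounds tested at five concentrations. GI50 = concentration required for 50% inhibition of growth.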 The source made the active and inactive calls. No stated cut-off is given here; in the data, active = GI50 up to about 1.1 µM and inactive = higher.
# Experiments:
# Assay in all cases: NCI tumour cell line growth inhibition, 48 h
# 786-0 = test system: 786-0
# A498 = test system: A498
# COLO 205 = test system: COLO 205
# HT-29 = test system: HT-29
# IGROV-1 = test system: IGROV-1
# NCI-H226 = test system: NCI-H226
# NCI-H23 = test system: NCI-H23
# NCI-H460 = test system: NCI-H460
# NCI/ADR-RES = test system: NCI/ADR-RES
# OVCAR-8 = test system: OVCAR-8
# PC-3 = test system: PC-3
# SK-MEL-28 = test system: SK-MEL-28
# SK-MEL-5 = test system: SK-MEL-5
# SK-OV-3 = test system: SK-OV-3
# SW-620 = test system: SW-620
# U-251 = test system: U-251
# UACC-257 = test system: UACC-257
# UO-31 = test system: UO-31
# CAKI-1 = test system: CAKI-1
# NCI-H522 = test system: NCI-H522
SMILES,GI50 (786-0),GI50 (A498),GI50 (COLO 205),GI50 (HT-29),GI50 (IGROV-1),GI50 (NCI-H226),GI50 (NCI-H23),GI50 (NCI-H460),GI50 (NCI/ADR-RES),GI50 (OVCAR-8),GI50 (PC-3),GI50 (SK-MEL-28),GI50 (SK-MEL-5),GI50 (SK-OV-3),GI50 (SW-620),GI50 (U-251),GI50 (UACC-257),GI50 (UO-31),GI50 (CAKI-1),GI50 (NCI-H522)
Cc1cc2ccccc2n2c1nc1ccccc12,> 100 µM (inactive),15.2 µM (inactive),> 100 µM (inactive),> 100 µM (inactive),> 100 µM (inactive),> 100 µM (inactive),> 100 µM (inactive),> 100 µM (inactive),> 100 µM (inactive),> 100 µM (inactive),> 100 µM (inactive),> 100 µM (inactive),> 100 µM (inactive),> 100 µM (inactive),> 100 µM (inactive),> 100 µM (inactive),> 100 µM (inactive),> 100 µM (inactive),–,–
COC1=C(OC)C(=O)C(Cc2c(C)nc3sccn23)=C(C)C1=O,19.1 µM (inactive),14.9 µM (inactive),12.6 µM (inactive),16.4 µM (inactive),22.4 µM (inactive),–,10.9 µM (inactive),20 µM (inactive),14.4 µM (inactive),14.9 µM (inactive),16.3 µM (inactive),11 µM (inactive),4.68 µM (inactive),13.7 µM (inactive),14.8 µM (inactive),15.6 µM (inactive),5.65 µM (inactive),13.6 µM (inactive),17.9 µM (inactive),6.64 µM (inactive)
CCOC(=O)C(NC(=O)c1ccccc1)(Nc1ccc(S(=O)(=O)Nc2ccc(OC)nn2)cc1)C(F)(F)F (stereo unspecified),> 100 µM (inactive),–,> 100 µM (inactive),> 100 µM (inactive),> 100 µM (inactive),> 100 µM (inactive),> 100 µM (inactive),> 100 µM (inactive),> 100 µM (inactive),> 100 µM (inactive),> 100 µM (inactive),> 100 µM (inactive),> 100 µM (inactive),> 100 µM (inactive),> 100 µM (inactive),> 100 µM (inactive),> 100 µM (inactive),> 100 µM (inactive),> 100 µM (inactive),> 100 µM (inactive)
O=C(Nc1ccccc1)c1cc2c(cc1Cl)Sc1nccn1S2(=O)=O,21.2 µM (inactive),18.5 µM (inactive),15.3 µM (inactive),21.9 µM (inactive),20.2 µM (inactive),–,18.4 µM (inactive),16.6 µM (inactive),41.8 µM (inactive),58.2 µM (inactive),20.1 µM (inactive),18 µM (inactive),12.9 µM (inactive),76.4 µM (inactive),21.1 µM (inactive),25.5 µM (inactive),18.7 µM (inactive),34 µM (inactive),0.266 µM (active),21 µM (inactive)
COc1cc(OC)cc(OCc2ccc3nc(-c4ccccc4)c(Cl)nc3c2)c1,9.89 µM (inactive),35 µM (inactive),25.2 µM (inactive),48.5 µM (inactive),21.1 µM (inactive),–,17.3 µM (inactive),37 µM (inactive),25 µM (inactive),25.8 µM (inactive),37.6 µM (inactive),> 100 µM (inactive),14.5 µM (inactive),–,59.8 µM (inactive),20.9 µM (inactive),> 100 µM (inactive),66.2 µM (inactive),11.5 µM (inactive),5.05 µM (inactive)
CC(C)(C)c1cc2c(O)c(c1)C(c1ccccc1)c1cc(C(C)(C)C)cc(c1O)Cc1cc(C(C)(C)C)cc(c1O)C(c1ccccc1)c1cc(C(C)(C)C)cc(c1O)C2 (stereo unspecified),> 100 µM (inactive),> 100 µM (inactive),> 100 µM (inactive),> 100 µM (inactive),> 100 µM (inactive),–,> 100 µM (inactive),> 100 µM (inactive),> 100 µM (inactive),> 100 µM (inactive),> 100 µM (inactive),> 100 µM (inactive),> 100 µM (inactive),–,> 100 µM (inactive),> 100 µM (inactive),> 100 µM (inactive),> 100 µM (inactive),> 100 µM (inactive),> 100 µM (inactive)
CC(C)c1ccc(NC(=S)NC(=O)c2ccccc2)cc1,18.4 µM (inactive),22.9 µM (inactive),16.3 µM (inactive),10.4 µM (inactive),25.4 µM (inactive),–,23 µM (inactive),15.5 µM (inactive),31.7 µM (inactive),32.3 µM (inactive),36.5 µM (inactive),20.8 µM (inactive),13.4 µM (inactive),42 µM (inactive),22.3 µM (inactive),26.9 µM (inactive),14.8 µM (inactive),3.94 µM (inactive),20.5 µM (inactive),17.4 µM (inactive)
Cc1ccc(S(=O)(=O)n2cc(C#N)c(C#N)c2)cc1,36.2 µM (inactive),24.7 µM (inactive),28.6 µM (inactive),23.9 µM (inactive),31.1 µM (inactive),–,29.8 µM (inactive),36.5 µM (inactive),31.8 µM (inactive),31.8 µM (inactive),28.9 µM (inactive),15.5 µM (inactive),21.3 µM (inactive),19.1 µM (inactive),34.6 µM (inactive),13.3 µM (inactive),29.2 µM (inactive),26.9 µM (inactive),26.1 µM (inactive),15.4 µM (inactive)
O=c1cc(-c2ccccc2)[nH]c2ccc(N3CCCCC3)cc12,0.0364 µM (active),–,0.017 µM (active),0.0566 µM (active),0.0506 µM (active),0.0193 µM (active),0.023 µM (active),0.0306 µM (active),0.0204 µM (active),0.0462 µM (active),0.0297 µM (active),0.0267 µM (active),< 0.0153 µM (active),0.0368 µM (active),0.0468 µM (active),0.0171 µM (active),42.6 µM (inactive),> 10 µM (inactive),< 0.0221 µM (active),0.0133 µM (active)
CC(C)(C)OC(=O)N1[C@@H]2Cc3ccc(N)cc3[C@@]1(C)c1ccccc12,19.1 µM (inactive),30.5 µM (inactive),–,21.6 µM (inactive),46.7 µM (inactive),–,19.3 µM (inactive),21.2 µM (inactive),22.4 µM (inactive),–,29.9 µM (inactive),–,0.9 µM (active),34 µM (inactive),29.7 µM (inactive),17 µM (inactive),27.2 µM (inactive),40.6 µM (inactive),45.2 µM (inactive),12.2 µM (inactive)
COc1ccc(/N=N/c2c(C)c(C#N)c(=S)n(C3OC(CO)C(O)C(O)C3O)c2-c2ccccc2)cc1 (stereo unspecified),32 µM (inactive),20.9 µM (inactive),47.5 µM (inactive),32.5 µM (inactive),30.4 µM (inactive),–,28.4 µM (inactive),31.3 µM (inactive),93.1 µM (inactive),–,17.1 µM (inactive),25.3 µM (inactive),11.5 µM (inactive),27.2 µM (inactive),26.1 µM (inactive),29 µM (inactive),48.8 µM (inactive),39.4 µM (inactive),24.2 µM (inactive),–
